6 compounds from the NIST ThermoML archive (doi:10.1021/je700099w) can be followed below.

± gives the expanded uncertainty stated by the source.

Data set [1] is described as follows: refractive index (Na D-line) (dimensionless). The following applies: 298.15 K, 101.33 kPa, Liquid.
The conditions of data set [2]: 298.15 K; 101.33 kPa; Liquid.

For the compound `CCCCCO` [pentan-1-ol], the refractive index (usually the speed of light in vacuum divided by its phase velocity in the sample) in data set [1] (Standard Abbe refractometry) stood at 1.40797 ± 0.00075. Moreover, the mass density – broadly, the mass of a sample divided by its volume – in data set [2] is recorded as 810.8 ± 0.8 kg/m3.
The like results for `CCCCO` [butan-1-ol] were, in that order, 1.39726 ± 0.00072 and 805.6 ± 0.5 kg/m3.
Consider `CCCCCCn1cc[n+](C)c1.F[P-](F)(F)(F)(F)F` [1-hexyl-3-methylimidazolium hexafluorophosphate], for which the refractive index in data set [1] is 1.41787 ± 0.0011. The mass density in data set [2] is recorded as 1293.7 ± 2.5 kg/m3.
In the case of `CCCO` [propan-1-ol], the refractive index in data set [1] (Standard Abbe refractometry) was 1.38305 ± 0.00075. Besides, the mass density in data set [2] is listed as 799.6 ± 0.8 kg/m3.
For the compound `CCCCn1cc[n+](C)c1.F[P-](F)(F)(F)(F)F` [1-butyl-3-methylimidazolium hexafluorophosphate], the refractive index in data set [1] was 1.40937 ± 0.0011. Further, the mass density in data set [2] worked out at 1367.3 ± 2.9 kg/m3.
The like results for `CCCCCCCC[n+]1ccn(C)c1.F[P-](F)(F)(F)(F)F` [1-octyl-3-methylimidazolium hexafluorophosphate] were, in that order, 1.42302 ± 0.0011 and 1235.7 ± 2.2 kg/m3.
